Source: patent US8623893B2, “Pyridino-pyridinone derivatives, preparation and therapeutic use thereof” (SANOFI, priority 2009, dated 2014)

Legend:
[1] = biological target: T1, fusion protein Tel/PDGF-R beta (PDGF beta receptor) in BaF/3 cells (Homo sapiens, UniProt P09619); assay: Inhibition of proliferation of BaF3 Tel/PDGF cells (tyrosine kinase activity of PDGF-R beta), CellTiter-Glo, 72 h; type: cell-based, murine; details: 72 h incubation, cellular ATP, read-out: IC50 (concentration that inhibits 50% of the proliferation of Baf3 tel/PDGF cells)
T1 construct: the transmembrane and intracellular part of the PDGF-R beta receptor; expressed in transfected cells; host or cells: murine haematopoietic cell line BaF/3; the other entry of the earlier key: ETV6 (P41212, Transcription factor ETV6)
T1 sequence (P09619 with tags, fused parts or gaps): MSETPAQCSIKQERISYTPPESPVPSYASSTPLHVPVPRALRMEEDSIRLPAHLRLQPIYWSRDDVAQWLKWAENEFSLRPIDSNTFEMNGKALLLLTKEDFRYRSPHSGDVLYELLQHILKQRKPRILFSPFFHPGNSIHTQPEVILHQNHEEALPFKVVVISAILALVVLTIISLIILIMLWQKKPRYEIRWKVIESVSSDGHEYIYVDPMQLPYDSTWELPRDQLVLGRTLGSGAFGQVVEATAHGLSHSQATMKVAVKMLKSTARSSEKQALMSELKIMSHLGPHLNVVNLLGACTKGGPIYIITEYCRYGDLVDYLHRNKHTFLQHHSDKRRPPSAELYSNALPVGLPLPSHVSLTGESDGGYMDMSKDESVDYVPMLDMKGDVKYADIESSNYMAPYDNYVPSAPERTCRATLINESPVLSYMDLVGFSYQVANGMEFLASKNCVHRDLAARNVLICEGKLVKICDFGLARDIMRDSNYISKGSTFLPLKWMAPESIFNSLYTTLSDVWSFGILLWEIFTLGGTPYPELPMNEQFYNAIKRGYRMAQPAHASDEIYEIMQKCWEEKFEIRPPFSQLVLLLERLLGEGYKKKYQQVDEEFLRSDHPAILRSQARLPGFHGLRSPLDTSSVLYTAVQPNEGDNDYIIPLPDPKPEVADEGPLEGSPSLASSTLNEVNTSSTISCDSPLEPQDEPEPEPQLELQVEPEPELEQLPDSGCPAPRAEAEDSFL
Source text: (§1) The inhibitory activity with respect to PDGF or Flt-3 receptors is given by the concentration that inhibits 50% of the proliferation activity of cells Baf3 tel/PDGF or MV4-11, respectively.
Measurement of Inhibition of the Tyrosine Kinase Activity of the Receptor to PDGF Beta (PDGF-Rβ) (Baf-3 tel/PDGFRβ):
This test consists of evaluating the effects of the compounds on the tyrosine kinase activity of the PDGF beta receptor.
The inhibitory effect of the compounds according to the invention on the tyrosine kinase activity of the PDGF-R receptor was evaluated on the murine haematopoietic cell line BaF/3 transfected with a plasmid coding for the fusion protein Tel/PDGF-R beta. This fusion protein is found in chronic myeloid myelomonocytic leukaemias (CMML). It comprises the N-terminal part of the transcription factor Tel and the transmembrane and intracellular part of the PDGF-R beta receptor. This fusion protein is present in dimerized form (presence of an oligomerization domain in the N-terminal part of Tel) and accordingly leads to the constitutive activity of the kinase domain of PDGF-R beta.
(§2) The BaF3 Tel/PDGF cells are washed with phosphate buffer and seeded in 96-well plates, at a density of 5.10^4 cells/ml (100 ml per well), in RPMI 1640 containing 10% of FCS, in the presence or absence of the test compounds. After incubation for 72 h, the viable cells are quantified by measurement of cellular ATP using the CellTiter-Glo® kit (Promega, Cat G7571). The cells are treated according to the instructions given by the supplier of the kit and the luminescence is measured with a Luminoskan (Ascent, Labsystem) with the following parameters: measurement: single; integration time: 1000 ms, lag time: 5 s.
It thus appears that the compounds according to the invention have an inhibitory activity on the tyrosine kinase activity of PDGF-R beta. This activity is given by the concentration that inhibits 50% of the proliferation of Baf3 tel/PDGF cells (IC50).

[2] = biological target: T2, Flt-3 receptor (constitutively active mutant Flt3ITD, MV4-11 cell line) (Homo sapiens, UniProt P36888, INS600HVDFREYEYD); assay: Inhibition of proliferation of MV4-11 cells (tyrosine kinase activity of Flt-3 receptor), CellTiter-Glo, 72 h; type: cell-based; details: 72 h incubation, cellular ATP, read-out: IC50 (concentration that inhibits 50% of the proliferation of the MV4-11 cells)
T2 construct: bearing a constitutively active mutant Flt3ITD; endogenous in cells; host or cells: MV4-11
T2 sequence (P36888 with tags, fused parts or gaps INS600HVDFREYEYD): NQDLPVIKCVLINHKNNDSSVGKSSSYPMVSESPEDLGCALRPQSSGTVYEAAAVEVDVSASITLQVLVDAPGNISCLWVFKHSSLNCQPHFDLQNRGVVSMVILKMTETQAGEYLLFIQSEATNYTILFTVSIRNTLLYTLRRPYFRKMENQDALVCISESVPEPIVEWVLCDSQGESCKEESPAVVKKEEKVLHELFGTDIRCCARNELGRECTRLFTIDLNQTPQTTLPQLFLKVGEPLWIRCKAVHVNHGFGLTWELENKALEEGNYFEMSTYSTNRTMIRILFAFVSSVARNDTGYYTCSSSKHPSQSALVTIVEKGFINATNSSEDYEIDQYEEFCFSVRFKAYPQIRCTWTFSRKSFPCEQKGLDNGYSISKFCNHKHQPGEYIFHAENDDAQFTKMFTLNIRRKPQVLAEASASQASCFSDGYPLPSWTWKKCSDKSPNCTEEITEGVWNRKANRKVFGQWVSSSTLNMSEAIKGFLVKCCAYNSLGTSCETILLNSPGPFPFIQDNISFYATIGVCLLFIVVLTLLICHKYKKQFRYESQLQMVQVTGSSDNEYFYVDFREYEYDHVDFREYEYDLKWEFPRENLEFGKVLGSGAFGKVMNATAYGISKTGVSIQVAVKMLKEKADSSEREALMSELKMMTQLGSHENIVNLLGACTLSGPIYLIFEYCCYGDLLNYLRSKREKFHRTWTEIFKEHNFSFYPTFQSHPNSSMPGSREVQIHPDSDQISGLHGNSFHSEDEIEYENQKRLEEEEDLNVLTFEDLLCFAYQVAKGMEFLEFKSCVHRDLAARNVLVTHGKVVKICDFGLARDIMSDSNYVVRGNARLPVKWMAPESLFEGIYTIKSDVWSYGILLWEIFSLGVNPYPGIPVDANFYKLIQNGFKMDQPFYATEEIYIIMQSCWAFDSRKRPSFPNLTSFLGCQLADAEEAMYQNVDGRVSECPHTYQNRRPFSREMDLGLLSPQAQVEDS
Method: as §1
Measurement of Inhibition of the Tyrosine Kinase Activity of the Flt-3 Receptor
The inhibitory effect of the compounds according to the invention on the tyrosine kinase activity of the Flt-3 receptor was evaluated on the MV4-11 cell line, a line established from a leukaemia of the AML type and bearing a constitutively active mutant Flt3ITD. The inhibitory activity is correlated with inhibition of cell growth, according to the protocols described by SPIEKERMANN, K. et al., Blood, 2003, 101, (4) 1494-1504 and O'FARRELL, A.-M. et al., Blood, 2003, 101, (9) 3597-3605.
as §2, with “The MV4-11” for “The BaF3 Tel/PDGF”, “with PBS” for “with phosphate”, “of 1.10^5” for “of 5.10^4”, “(100 μl” for “(100 ml”, “h,” for “h, the”, “measured using” for “measured with”
The inhibitory activity with respect to the Flt-3 receptor is given by the concentration that inhibits 50% of the proliferation of the MV4-11 cells.

SMILES | IC50 [1] [nM] | IC50 [2] [nM]
CCn1c(N)c(-c2ncc[nH]2)c(=O)c2ccc(-c3ccc(CC(=O)Nc4nnc(C5CC5)s4)cc3)nc21 [Compound 20, 2-{4-[7-Amino-8-ethyl-6-(1H-imidazol-2-yl)-5-oxo-5,8-dihydro-[1,8]naphthyridin-2-yl]-phenyl}-N-(5-cyclopropyl-[1,3,4]thiadiazol-2-yl)-acetamide] | 8 | 26
CCn1c(N)c(-c2ncc[nH]2)c(=O)c2ccc(-c3ccc(CC(=O)Nc4onc(C)c4C)cc3)nc21 [Compound 27, 2-{4-[7-Amino-8-ethyl-6-(1H-imidazol-2-yl)-5-oxo-5,8-dihydro-[1,8]naphthyridin-2-yl]-phenyl}-N-(3,4-dimethyl-isoxazol-5-yl)-acetamide] | 2 | 30
CCc1ccnc(NC(=O)Cc2ccc(-c3ccc4c(=O)c(-c5ncc[nH]5)c(N)n(CC)c4n3)cc2)c1 [Compound 43, 2-{4-[7-Amino-8-ethyl-6-(1H-imidazol-2-yl)-5-oxo-5,8-dihydro-[1,8]naphthyridin-2-yl]-phenyl}-N-(4-ethyl-pyridin-2-yl)-acetamide] | 1.4 | 19
CCn1c(N)c(-c2nc(C)c[nH]2)c(=O)c2ccc(-c3ccc(CC(=O)NCc4ccncc4)cc3)nc21 [Compound 50, 2-{4-[7-Amino-8-ethyl-6-(4-methyl-1H-imidazol-2-yl)-5-oxo-5,8-dihydro-[1,8]naphthyridin-2-yl]-phenyl}-N-pyridin-4-ylmethyl-acetamide] | 6.6 | 115

The remaining lines, values ahead:

IC50 [1] [nM] | IC50 [2] [nM] | SMILES
2 | 52 | CCn1c(N)c(-c2ncc[nH]2)c(=O)c2ccc(-c3ccc(CC(=O)Nc4ncc(C)s4)cc3)nc21 [Compound 8, 2-{4-[7-Amino-8-ethyl-6-(1H-imidazol-2-yl)-5-oxo-5,8-dihydro-[1,8]naphthyridin-2-yl]-phenyl}-N-(5-methyl-thiazol-2-yl)-acetamide]
 | 69 | CCn1c(N)c(-c2ncc[nH]2)c(=O)c2ccc(-c3ccc(CC(=O)Nc4ncccc4C)cc3)nc21 [Compound 32, 2-{4-[7-Amino-8-ethyl-6-(1H-imidazol-2-yl)-5-oxo-5,8-dihydro-[1,8]naphthyridin-2-yl]-phenyl}-N-(3-methyl-pyridin-2-yl)-acetamide]
 | 84 | CCn1c(N)c(-c2ncc[nH]2)c(=O)c2ccc(-c3ccc(CC(=O)Nc4cnccc4C)cc3)nc21 [Compound 42, 2-{4-[7-Amino-8-ethyl-6-(1H-imidazol-2-yl)-5-oxo-5,8-dihydro-[1,8]naphthyridin-2-yl]-phenyl}-N-(4-methyl-pyridin-3-yl)-acetamide]
